Patent US20240025892A1 (priority 2020, published 2024)

How the values were obtained:
[1] = target: Recombinant SIK2 (Homo sapiens (Human), UniProt Q9H0K1); assay: biochemical; conditions: recombinant SIK2 2.5 nM, 1 μM ATP; read-out: SIK2 IC50
Experimental: (§1) Assays were performed in base reaction buffer (20 mM Hepes (pH 7.5), 10 mM MgCl2, 1 mM EGTA, 0.02% Brij35, 0.02 mg/mL BSA, 0.1 mM Na3VO4, 2 mM DTT, 1% DMSO). Compounds were dissolved in 100% DMSO in a 10 mM stock. […] Assays were performed for 20 minutes at room temperature, after which time ^33P-ATP (10 μCi/μL) was added followed by incubation for another 120 minutes at room temperature. Thereafter, radioactivity incorporated into the pEY peptide substrate was detected by filter-binding method. Kinase activity data were expressed as the percent remaining kinase activity in test samples compared to DMSO reactions. IC50 values and curve fits were obtained using Prism (GraphPad Software).

[2] = target: SIK3 (Homo sapiens (Human), UniProt Q9Y2K2); assay: In vitro SIK3 kinase assay; assay type: biochemical
Sequence of SIK3 (Q9Y2K2 whole entry): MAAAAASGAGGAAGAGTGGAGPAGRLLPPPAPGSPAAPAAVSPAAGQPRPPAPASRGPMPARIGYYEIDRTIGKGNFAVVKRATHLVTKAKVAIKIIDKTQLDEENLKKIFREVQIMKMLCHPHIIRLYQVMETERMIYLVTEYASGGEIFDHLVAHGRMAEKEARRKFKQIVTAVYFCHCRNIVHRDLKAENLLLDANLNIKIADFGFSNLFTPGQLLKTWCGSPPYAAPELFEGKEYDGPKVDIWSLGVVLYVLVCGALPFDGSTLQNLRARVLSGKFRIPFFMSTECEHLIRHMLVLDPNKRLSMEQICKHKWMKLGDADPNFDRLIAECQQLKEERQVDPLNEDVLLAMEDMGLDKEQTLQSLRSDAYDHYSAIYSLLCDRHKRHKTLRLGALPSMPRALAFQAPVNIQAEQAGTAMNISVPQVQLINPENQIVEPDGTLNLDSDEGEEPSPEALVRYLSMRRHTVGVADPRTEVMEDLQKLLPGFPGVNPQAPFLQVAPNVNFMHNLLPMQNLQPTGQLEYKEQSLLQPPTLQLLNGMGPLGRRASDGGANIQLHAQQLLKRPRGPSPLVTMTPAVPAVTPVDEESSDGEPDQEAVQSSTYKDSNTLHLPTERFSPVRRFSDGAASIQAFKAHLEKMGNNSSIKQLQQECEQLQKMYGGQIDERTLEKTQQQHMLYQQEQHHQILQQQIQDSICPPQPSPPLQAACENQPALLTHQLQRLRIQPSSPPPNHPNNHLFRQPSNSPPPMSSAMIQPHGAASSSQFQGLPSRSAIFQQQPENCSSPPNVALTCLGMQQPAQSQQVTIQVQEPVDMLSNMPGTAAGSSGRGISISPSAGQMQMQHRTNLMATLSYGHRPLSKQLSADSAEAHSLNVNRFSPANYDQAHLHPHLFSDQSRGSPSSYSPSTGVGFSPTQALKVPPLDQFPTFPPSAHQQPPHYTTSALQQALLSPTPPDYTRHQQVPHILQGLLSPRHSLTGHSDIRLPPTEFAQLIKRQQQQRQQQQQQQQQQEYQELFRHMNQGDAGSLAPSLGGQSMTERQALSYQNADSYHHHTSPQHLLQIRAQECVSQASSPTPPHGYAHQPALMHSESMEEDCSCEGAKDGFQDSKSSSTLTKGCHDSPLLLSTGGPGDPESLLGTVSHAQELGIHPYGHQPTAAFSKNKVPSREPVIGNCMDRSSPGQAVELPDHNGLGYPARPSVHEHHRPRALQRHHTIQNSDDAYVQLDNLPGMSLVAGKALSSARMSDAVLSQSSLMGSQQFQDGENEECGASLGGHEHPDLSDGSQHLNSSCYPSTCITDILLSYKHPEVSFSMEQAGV
Experimental: as §1

[3] = test system: CRTC2 (TORC2); assay: CRTC2 nuclear translocation (PathHunter U2OS); assay type: cell-based; conditions: maximal CRTC2 nuclear translocation, U2OS cells, 90 minutes, maximum dose 10 μM
Text: PathHunter® Nuclear Translocation cell lines are engineered to co-express two fusion proteins: a) Enzyme Donor (ED) tagged target protein; b) an Enzyme Acceptor (EA) tagged TAZ domain, derived from the CBP/P300 transcription factor, that localizes to the nucleus. Activation of the signaling pathway induces translocation of the ED-tagged target protein into the nucleus, which will force complementation of the two enzyme fragments, and result in the formation of a functional enzyme that will hydrolyze substrate and generate a chemiluminescent signal. U2OS CRTC2 (TORC2) translocation assays were performed in 384 well plates at Eurofins DiscoverX (Freemont, CA). Cells were treated with compounds for 90 minutes in experimental duplicates in 5 point dose response format (4-fold serial dilutions with a maximum dose of 10 μM) followed by […] readout on an Envision 2104 Multilabel Reader. In all experiments, forskolin was used as a positive control and maximal CRTC2 nuclear translocation induced by each compound is expressed as a percentage of the signal stimulated by forskolin.
Representative data are shown in FIG. 4A and presented as percent of the positive control (forskolin) signal.

[4] = test system: RANKL; assay: RANKL gene expression in Ocy454 cells (RT-qPCR); conditions: maximal RANKL fold induction versus DMSO, four hours;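 note: Ocy454 cells moved to 37 °C for osteocytic differentiation before compound exposure, RANKL mRNA by SYBR Green qRT-PCR, 2^−ΔΔCT with β-actin normalization, duplicate wells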
[5] = target: SIK1 (Homo sapiens (Human), UniProt P57059); assay: In vitro SIK1 kinase assay; assay type: biochemical
Sequence of SIK1 (P57059 whole entry): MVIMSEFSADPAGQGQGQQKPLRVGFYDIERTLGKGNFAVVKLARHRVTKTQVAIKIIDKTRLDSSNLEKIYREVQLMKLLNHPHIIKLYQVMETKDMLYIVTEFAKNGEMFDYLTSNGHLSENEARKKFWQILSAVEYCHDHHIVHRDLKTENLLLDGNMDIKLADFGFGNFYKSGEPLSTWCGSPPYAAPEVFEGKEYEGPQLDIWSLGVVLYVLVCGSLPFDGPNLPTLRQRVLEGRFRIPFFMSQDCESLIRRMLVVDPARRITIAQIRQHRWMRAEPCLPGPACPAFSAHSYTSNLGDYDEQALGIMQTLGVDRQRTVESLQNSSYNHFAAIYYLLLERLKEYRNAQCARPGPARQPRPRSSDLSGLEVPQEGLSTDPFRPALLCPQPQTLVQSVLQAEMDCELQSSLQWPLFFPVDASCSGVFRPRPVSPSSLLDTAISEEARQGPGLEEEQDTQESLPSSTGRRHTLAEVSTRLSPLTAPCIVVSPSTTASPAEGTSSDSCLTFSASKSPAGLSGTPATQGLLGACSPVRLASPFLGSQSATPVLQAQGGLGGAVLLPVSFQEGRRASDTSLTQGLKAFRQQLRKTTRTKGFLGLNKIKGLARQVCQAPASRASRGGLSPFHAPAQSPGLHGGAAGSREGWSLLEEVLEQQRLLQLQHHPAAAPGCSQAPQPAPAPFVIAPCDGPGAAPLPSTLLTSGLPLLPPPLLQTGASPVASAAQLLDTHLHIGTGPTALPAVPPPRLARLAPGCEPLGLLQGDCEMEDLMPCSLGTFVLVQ
Experimental: as §1

Sequence of Recombinant SIK2 (Q9H0K1 whole entry): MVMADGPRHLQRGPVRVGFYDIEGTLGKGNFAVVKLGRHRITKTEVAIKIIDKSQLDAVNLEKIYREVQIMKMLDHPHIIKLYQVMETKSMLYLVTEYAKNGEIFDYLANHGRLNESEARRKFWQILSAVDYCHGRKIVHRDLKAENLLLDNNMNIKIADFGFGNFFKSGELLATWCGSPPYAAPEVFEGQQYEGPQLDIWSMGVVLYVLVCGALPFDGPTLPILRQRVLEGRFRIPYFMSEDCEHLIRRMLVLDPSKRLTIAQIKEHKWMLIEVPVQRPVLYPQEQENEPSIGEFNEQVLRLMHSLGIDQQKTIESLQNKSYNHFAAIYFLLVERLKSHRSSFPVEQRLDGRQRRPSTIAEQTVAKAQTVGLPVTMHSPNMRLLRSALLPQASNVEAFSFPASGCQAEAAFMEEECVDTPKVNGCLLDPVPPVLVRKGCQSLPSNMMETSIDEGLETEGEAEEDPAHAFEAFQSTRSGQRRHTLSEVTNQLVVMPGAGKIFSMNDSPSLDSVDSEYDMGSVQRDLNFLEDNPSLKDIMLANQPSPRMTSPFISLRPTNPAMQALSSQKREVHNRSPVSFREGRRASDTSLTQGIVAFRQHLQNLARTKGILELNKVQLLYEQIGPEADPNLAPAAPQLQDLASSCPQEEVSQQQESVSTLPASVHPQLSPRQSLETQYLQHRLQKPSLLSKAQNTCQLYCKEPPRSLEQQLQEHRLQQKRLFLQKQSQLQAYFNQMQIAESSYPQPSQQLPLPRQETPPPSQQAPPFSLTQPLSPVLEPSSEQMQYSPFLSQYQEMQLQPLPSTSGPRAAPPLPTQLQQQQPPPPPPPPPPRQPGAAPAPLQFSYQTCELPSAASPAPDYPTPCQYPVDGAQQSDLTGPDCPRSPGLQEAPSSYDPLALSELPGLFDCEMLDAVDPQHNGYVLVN

With `CC1(COc2ccc3c(c2)ncn3-c2ccc3cccc(N4CC5(CC(N)C5)C4)c3n2)COC1` [Example 2, 2-[2-[5-[(3-Methyloxetan-3-yl)methoxy]benzimidazol-1-yl]-8-quinolyl]-2-azaspiro[3.3]heptan-6-amine] the IC50 [1] was 42.1 nM, the IC50 [2] was 38.7 nM and the “CRTC2 Efficacy (% of forskolin)” value [3] was 162 % of forskolin. The “RANKL Fold Induction” value [4] was 1.43 fold and the IC50 [5] was 625 nM.

For `CC1(COc2ccc3c(c2)ncn3-c2ccc3cccc(N4CCCC4CN)c3n2)COC1` (centres unmarked) [Example 8, (1-(2-(5-((3-methyloxetan-3-yl)methoxy)-1H-benzo[d]imidazol-1-yl)quinolin-8-yl)pyrrolidin-2-yl)methanamine], the IC50 [1] was 11.6 nM, the IC50 [2] was 30.8 nM and the “CRTC2 Efficacy (% of forskolin)” value [3] was 64.4 % of forskolin. The “RANKL Fold Induction” value [4] was 17.47 fold and the IC50 [5] was 50.1 nM.

`CN1CCOCC12CCN(c1cccc3ccc(-n4cnc5cc(OCC6(C)COC6)ccc54)nc13)CC2` [Example 10, 1-Methyl-9-[2-[5-[(3-methyloxetan-3-yl)methoxy]benzimidazol-1-yl]-8-quinolyl]-4-oxa-1,9-diazaspiro[5.5]undecane] was tested, and the IC50 [1] was 2.11 nM, the IC50 [2] was 3.71 nM and the “CRTC2 Efficacy (% of forskolin)” value [3] was 75.8 % of forskolin. The “RANKL Fold Induction” value [4] was 58.64 fold and the IC50 [5] was 37.8 nM.

With `NC1CCN(c2cccc3ncc(-n4cnc5cc(OCC6CS(=O)(=O)C6)ccc54)nc23)CC1` [Example 14, 3-(((1-(8-(4-Aminopiperidin-1-yl)quinoxalin-2-yl)-1H-benzo[d]imidazol-5-yl)oxy)methyl)thietane 1,1-dioxide] the IC50 [1] was 16.1 nM, the IC50 [2] was 6.08 nM and the “CRTC2 Efficacy (% of forskolin)” value [3] was 94.2 % of forskolin. For the same molecule, the “RANKL Fold Induction” value [4] was 1.26 fold and the IC50 [5] was 109 nM.

In the case of `CN1CC(c2cccc3ccc(-n4cnc5cc(OCC6(C)COC6)ccc54)nc23)C1` [Example 15, 8-(1-Methylazetidin-3-yl)-2-(5-((3-methyloxetan-3-yl)methoxy)-1H-benzo[d]imidazol-1-yl)quinoline], the IC50 [1] is reported as 1.91 nM, the IC50 [2] is reported as 1.12 nM and the “CRTC2 Efficacy (% of forskolin)” value [3] is reported as 63.5 % of forskolin. The “RANKL Fold Induction” value [4] was 88.34 fold and the IC50 [5] was 4.37 nM.

In the case of `CC1(COc2ccc3c(c2)ncn3-c2ccc3cccc(C4CCNC4)c3n2)COC1` (centres unmarked) [Example 16, 2-(5-((3-Methyloxetan-3-yl)methoxy)-1H-benzo[d]imidazol-1-yl)-8-(pyrrolidin-3-yl)quinoline], the IC50 [1] is reported as 3.39 nM, the IC50 [2] is reported as 4.43 nM and the “RANKL Fold Induction” value [4] is reported as 27.76 fold. The IC50 [5] was 16.6 nM.

In the case of `CN1CCC(c2cccc3ccc(-n4cnc5cc(OCC6(C)COC6)ccc54)nc23)C1` (centres unmarked) [Example 17, 2-(5-((3-Methyloxetan-3-yl)methoxy)-1H-benzo[d]imidazol-1-yl)-8-(1-methylpyrrolidin-3-yl)quinoline], the IC50 [1] is reported as 1.04 nM, the IC50 [2] is reported as 15.4 nM and the “RANKL Fold Induction” value [4] is reported as 12.73 fold. It also gave an IC50 [5] of 53.3 nM.

In the case of `Cn1c(CNC(=O)c2ccn3c(-c4ccc(C#N)cc4)cnc3c2)nc2ccccc21` [Example 23, 3-(4-cyanophenyl)-N-((1-methyl-1H-benzo[d]imidazol-2-yl)methyl)imidazo[1,2-a]pyridine-7-carboxamide], the IC50 [1] is reported as 14.3 nM, the IC50 [2] is reported as 861 nM and the “CRTC2 Efficacy (% of forskolin)” value [3] is reported as 19.8 % of forskolin.

`N#Cc1ccc(-c2cnc3cc(C(=O)NCc4nc5ccncc5[nH]4)ccn23)cc1` [Example 25, N-((3H-imidazo[4,5-c]pyridin-2-yl)methyl)-3-(4-cyanophenyl)imidazo[1,2-a]pyridine-7-carboxamide] was tested, and the IC50 [1] was 9.74 nM, the IC50 [2] was 1190 nM and the “CRTC2 Efficacy (% of forskolin)” value [3] was 1.6 % of forskolin. For the same molecule, the “RANKL Fold Induction” value [4] was 1.10 fold and the IC50 [5] was 5450 nM.

`N#Cc1ccc(-c2cnc3cc(C(=O)N4CCn5c(nc6ccccc65)C4)ccn23)cc1` [Example 28, 4-(7-(1,2,3,4-tetrahydrobenzo[4,5]imidazo[1,2-a]pyrazine-2-carbonyl)imidazo[1,2-a]pyridin-3-yl)benzonitrile] was tested, and the IC50 [1] was 597 nM, the IC50 [2] was 8090 nM and the “CRTC2 Efficacy (% of forskolin)” value [3] was 3.4 % of forskolin. For the same molecule, the “RANKL Fold Induction” value [4] was 1.25 fold.

In the case of `CN(Cc1nc2ccccc2n1C)C(=O)c1ccn2c(-c3ccc(C#N)cc3)cnc2c1` [Example 29, 3-(4-Cyanophenyl)-N-methyl-N-[(1-methylbenzimidazol-2-yl)methyl]imidazo[1,2-a]pyridine-7-carboxamide], the IC50 [1] is reported as 608 nM, the IC50 [2] is reported as 8340 nM and the “CRTC2 Efficacy (% of forskolin)” value [3] is reported as 2.8 % of forskolin. The “RANKL Fold Induction” value [4] was 1.48 fold.

In the case of `CC1(COc2ccn3c(-c4ccc(C#N)cc4)cnc3c2)COC1` [Example 38, 4-[7-[(3-Methyloxetan-3-yl)methoxy]imidazo[1,2-a]pyridin-3-yl]benzonitrile], the IC50 [1] is reported as 211 nM, the “CRTC2 Efficacy (% of forskolin)” value [3] is reported as 10.1 % of forskolin and the “RANKL Fold Induction” value [4] is reported as 0.37 fold.

In the case of `CCc1nnc(-c2c(OC)cc(-c3cnc4cc(OCC5(C)COC5)ccn34)cc2OC)o1` [Example 39, 2-(2,6-dimethoxy-4-(7-((3-methyloxetan-3-yl)methoxy)imidazo[1,2-a]pyridin-3-yl)phenyl)-5-ethyl-1,3,4-oxadiazole], the IC50 [1] is reported as 136 nM, the IC50 [2] is reported as 83.6 nM and the IC50 [5] is reported as 2680 nM.

For `Cc1ccc(CCOc2ccn3c(-c4ccc(C#N)cc4)cnc3c2)cn1` [Example 41, 4-[7-[2-(6-Methyl-3-pyridyl)ethoxy]imidazo[1,2-a]pyridin-3-yl]benzonitrile], the IC50 [2] was 12.6 nM, the “CRTC2 Efficacy (% of forskolin)” value [3] was 44.2 % of forskolin and the “RANKL Fold Induction” value [4] was 2.61 fold. It also gave an IC50 [5] of 233 nM.

Work on `CCc1nnc(-c2c(OC)cc(-c3cnc4cc(OCc5ccc(C)nc5)ccn34)cc2OC)o1` [Example 42, 2-[2,6-Dimethoxy-4-[7-[(6-methyl-3-pyridyl)methoxy]imidazo[1,2-a]pyridin-3-yl]phenyl]-5-ethyl-1,3,4-oxadiazole] yielded an IC50 [1] of 37 nM, an IC50 [2] of 47 nM and an IC50 [5] of 1180 nM.

With `CCn1cc(-c2ccn3c(-c4ccc(C#N)c(C)c4)cnc3c2)cn1` [Example 47, 4-(7-(1-ethyl-1H-pyrazol-4-yl)imidazo[1,2-a]pyridin-3-yl)-2-methylbenzonitrile] the IC50 [1] was 0.855 nM, the IC50 [2] was 4.16 nM and the “RANKL Fold Induction” value [4] was 17.43 fold. It also gave an IC50 [5] of 8.34 nM.

With `CCn1cc(-c2ccc3c(-c4ccc(C#N)cc4)cnn3c2)cn1` [Example 52, 4-[6-(1-Ethylpyrazol-4-yl)pyrazolo[1,5-a]pyridin-3-yl]benzonitrile] the IC50 [1] was 1.11 nM, the IC50 [2] was 1.64 nM and the “CRTC2 Efficacy (% of forskolin)” value [3] was 77 % of forskolin. For the same molecule, the “RANKL Fold Induction” value [4] was 19.99 fold and the IC50 [5] was 4.77 nM.

Work on `CCc1nnc(-c2c(OC)cc(-c3cnn4cc(-c5cnn(C6CC6)c5)ccc34)cc2OC)o1` [Example 53, 2-(4-(6-(1-cyclopropyl-1H-pyrazol-4-yl)pyrazolo[1,5-a]pyridin-3-yl)-2,6-dimethoxyphenyl)-5-ethyl-1,3,4-oxadiazole] yielded an IC50 [1] of 1.77 nM, an IC50 [2] of 2.62 nM and an IC50 [5] of 17.4 nM.

With `CCn1cc(-c2ccn3c(-c4ccc(-c5nnc(C)o5)cc4)cnc3c2)cn1` [Example 56, 2-(4-(7-(1-ethyl-1H-pyrazol-4-yl)imidazo[1,2-a]pyridin-3-yl)phenyl)-5-methyl-1,3,4-oxadiazole] the IC50 [1] was 533 nM, the IC50 [2] was 617 nM and the “CRTC2 Efficacy (% of forskolin)” value [3] was 4.9 % of forskolin. The “RANKL Fold Induction” value [4] was 2.18 fold and the IC50 [5] was 3120 nM.

`COc1cc(-c2cnc3cc(-c4cnn(C)c4)ccn23)cc(OC)c1-c1nnc(C2CC2)o1` [Example 60, 2-cyclopropyl-5-(2,6-dimethoxy-4-(7-(1-methyl-1H-pyrazol-4-yl)imidazo[1,2-a]pyridin-3-yl)phenyl)-1,3,4-oxadiazole] was tested, and the IC50 [1] was 1.49 nM, the IC50 [2] was 1.64 nM and the “RANKL Fold Induction” value [4] was 307.25 fold. It also gave an IC50 [5] of 4.45 nM.

For `CCc1nc(-c2c(OC)cc(-c3cnc4cc(-c5cnn(C)c5)ccn34)cc2OC)no1` [Example 61, 3-[2,6-Dimethoxy-4-[7-(1-methylpyrazol-4-yl)imidazo[1,2-a]pyridin-3-yl]phenyl]-5-ethyl-1,2,4-oxadiazole], the IC50 [1] was 3.07 nM, the IC50 [2] was 8.25 nM and the “CRTC2 Efficacy (% of forskolin)” value [3] was 76.9 % of forskolin. The “RANKL Fold Induction” value [4] was 19.00 fold and the IC50 [5] was 37.8 nM.

For `CCn1cc(-c2ccn3c(-c4ccc(-c5noc(C)n5)cc4)cnc3c2)cn1` [Example 62, 3-(4-(7-(1-Ethyl-1H-pyrazol-4-yl)imidazo[1,2-a]pyridin-3-yl)phenyl)-5-methyl-1,2,4-oxadiazole], the IC50 [1] was 253 nM, the IC50 [2] was 1090 nM and the “CRTC2 Efficacy (% of forskolin)” value [3] was 8.6 % of forskolin. The IC50 [5] was 1130 nM.
